Assay results published in patent US10213409B2, “Substituted benzofurans, benzothiophenes, benzoselenophenes and indoles and their use as tubulin polymerisation inhibitors” (Bionomics Limited, priority 2006, dated 2019).

Tests used:
[1] = system: Human umbilical vein endothelial cells (HUVECs), tumour type activated (Tum); test: Proliferation Assay - Activated Endothelium (MTT); assay type: cell-based; settings: Homo sapiens, HUVEC; tumour type activated endothelial cells
Protocol: Proliferation Assay—Activated Endothelium:
(§1) Cells were cultured overnight at 37° C. 5% CO2. Medium was subsequently replaced with fresh medium including the compound or negative control. Cells were cultured for a period of 48 hrs. An MTT assay was performed to measure changes in cell numbers. Briefly, 20 μl of MTT reagent was added to cells containing 100 μl of EGM2 and incubated at 37° C. for 2 hours.

[2] = system: Human umbilical vein endothelial cells (HUVECs), normal quiescent type (Norm); test: Proliferation Assay - Quiescent Endothelium (MTT); assay type: cell-based; settings: HUVEC
Protocol: Proliferation Assay—Quiescent Endothelium:
as §1, with “EBM2+0.5% FBS” for “EGM2”

| SMILES | IC50 [1] | IC50 [2] |
| --- | --- | --- |
| COc1cc(C(=O)c2c(CN(C)CC(=O)O)oc3c(O)c(OC)ccc23)cc(OC)c1OC [Example 44, 2-[(N-Methyl-2-amino-aceticacid)-methenyl)-3-(3,4,5-trimethoxybenzoyl)-6-methoxy-7-hydroxy-benzo[b]furan] | 10 to 100 nM | 10 to 100 nM |
| COc1cc(C(=O)c2c(Cn3nnc(N)n3)oc3c(O)c(OC)ccc23)cc(OC)c1OC [Example 36, 2-(5-amino-2H-tetrazol-2-yl)-methyl-3-(3,4,5-tri-methoxy-benzoyl)-6-methoxy-7-hydroxy-benzo[b]furan] | 1 to 10 nM | 1 to 10 nM |
| COc1cc(C(=O)c2c(C)[nH]c3c(O)c(OC)ccc23)cc(OC)c1O [Example 40, 3-(3,5-Dimethoxy-4-hydroxybenzoyl)-7-hydroxy-6-methoxy-2-methyl-1H-indole] | 1 to 10 nM | 10 to 100 nM |
| COc1cc(C(=O)c2c(NCCNC(=O)OC(C)(C)C)oc3c(O)c(OC)ccc23)cc(OC)c1OC [Example 26, tert-Butyl-2-(7-hydroxy-6-methoxy-3-(3,4,5-trimethoxybenzoyl)benzofuran-2-ylamino)ethyl carbamate] | 1 to 10 nM | 1 to 10 nM |
| COc1cc(C(=O)c2c(NCCS(N)(=O)=O)oc3c(O)c(OC)ccc23)cc(OC)c1OC [Example 45, 2-N-(Aminoethanesulphonamide)-3-(3,4,5-trimethoxybenzoyl)-6-methoxy-7-hydroxy-benzo[b]furan] | 1 to 10 nM | 1 to 10 nM |
| COc1ccc2c(C(=O)c3cc(OC)c(OC)c(OC)c3)c(C)sc2c1 [Example 51, 6-Methoxy-2-methyl-3-(3,4,5-trimethoxybenzoyl)benzo[b]thiophene, reference compound] | 1 to 10 nM | 1 to 10 nM |
| COc1ccc2c(C(=O)c3cc(OC)c(OC)c(OC)c3)c[nH]c2c1 [Comparator H, reference compound] | 1 to 10 nM | 1 to 10 nM |
| COC(=O)CN(C)Cc1oc2c(O)c(OC)ccc2c1C(=O)c1cc(OC)c(OC)c(OC)c1 [Example 43, 2-[(N-Methyl-2-amino-aceticacid methyl ester)-methenyl)-3-(3,4,5-trimethoxybenzoyl)-6-methoxy-7-hydroxy-benzo[b]furan] | 1 to 10 nM | 1 to 10 nM |
| COc1cc(C(=O)c2c(CN(C)C)oc3c(O)c(OC)ccc23)cc(OC)c1OC [Example 34, 2-Dimethylaminomethylene-3-(3,4,5-tri-methoxy-benzoyl)-6-methoxy-7-hydroxy-benzo[b]furan] | 1 to 10 nM | 1 to 10 nM |
| COc1cc(C(=O)c2c(N)oc3c(O)c(OC)ccc23)cc(OC)c1OC [Example 19, (2-Amino-7-hydroxy-6-methoxy-benzofuran-3-yl)-(3,4,5-trimethoxyphenyl)-methanone] | 1 to 10 nM | 1 to 10 nM |
| COc1cc(C(=O)c2c(C)sc3c(O)c(OC)ccc23)cc(OC)c1OC [Example 42, 7-Hydroxy-6-methoxy-2-methyl-3-(3,4,5-trimethoxybenzoyl)benzo[b]thiophene] | 0.1 to 1 nM | 1 to 10 nM |
| COc1cc(C(=O)c2c(Cn3ccnc3)oc3c(O)c(OC)ccc23)cc(OC)c1OC [Example 35, 2-(1H-Imidazol-1-yl)methyl-3-(3,4,5-trimethoxybenzoyl)-6-methoxy-7-hydroxy-benzo[b]furan] | 1 to 10 nM | 1 to 10 nM |
| COc1cc(C(=O)c2c(CN3CCN(C)CC3)oc3c(O)c(OC)ccc23)cc(OC)c1OC [Example 37, 2-(4-Methylpiperazin-1-yl)methyl-3-(3,4,5-tri-methoxy-benzoyl)-6-methoxy-7-hydroxy-benzo[b]furan] | 10 to 100 nM | 10 to 100 nM |
| COc1cc(C(=O)c2c(C)[nH]c3c(O)c(OC)ccc23)cc(OC)c1OC [Example 39, 7-Hydroxy-6-methoxy-2-methyl-3-(3,4,5-trimethoxybenzoyl)-1H-indole] | 0.01 to 0.1 nM | 0.1 to 1 nM |
